According to PMC3681751, “Identification of a Novel Antimicrobial Peptide from Human Hepatitis B Virus Core Protein Arginine-Rich Domain (ARD)” (PLoS Pathogens, 2013):
Values after ≈ are worked out from the molar mass of the structure shown. Residues, ends and D or L forms follow the SMILES beside them.

Tests used:
[1] = system: K. pneumonia (ATCC 13884); type: cell-based, Klebsiella pneumoniae; conditions: 3 h at 37°C in phosphate buffer pH 7.2; triplicate
[2] = system: A. baumannii ATCC17978 CR; type: cell-based, Acinetobacter baumannii; conditions: colistin-resistant A. baumannii of Table 2
Text: (§1) Clinical isolates of Pseudomonas aeruginosa (NHRI-01, NHRI-02 and NHRI-04) were obtained through the program of Taiwan Surveillance of Antimicrobial Resistance (TSAR), National Health Research Institutes (NHRI), Taiwan. Acinetobacter baumannii (ATCC 17989, ATCC 17978 CR, ATCC19606, ATCC 19606 CR, TCGH 45530 and TCGH 46709) were obtained from Tzu-Chi Buddhist General Hospital (TCGH) in Taiwan, and clinical isolates (TCGH 45530 and TCGH 46709) were identified using the Vitek system (Biomerieux Vitek, Inc., Hazelwood, MO, USA). A. baumannii is defined as multidrug-resistant, when the organism is resistant to piperacillin, piperacillin-tazobactam, ampicillin/sulbactam, imipenem, ceftazidime, gentamicin, amikacin, tetracycline, chloramphenicol, ciprofloxacin, and cotrimoxazole. Susceptibility to colistin was determined using the broth-dilution method, in accordance with the guidelines of the Clinical and Laboratory Standards Institute (CLSI).
(§2) All peptides were purchased from Yao-Hong Biotechnology Inc. (Taipei, Taiwan). Vendors provided data of peptide characterizations, including HPLC and Mass (data not shown). Antimicrobial activity was determined as described with some modifications as detailed below. Bacteria were grown overnight in Mueller–Hinton broth (Difco) at 37°C, and during the mid-logarithmic phase, bacteria were diluted to 10^6 CFU (colony formation unit)/ml in phosphate buffer (10 mM sodium phosphate and 50 mM sodium chloride, pH 7.2). Peptides were serially diluted in the same buffer. Fifty microliter (µl) of bacteria was mixed with fifty µl of peptides at varying concentrations followed by incubation at 37°C for 3 hours without shaking. At the end of incubation, bacteria were placed on Mueller-Hinton broth agar plates, and allowed growth at 37°C overnight for measurement of minimal bactericidal concentration (MBC). […] All peptides were tested in triplicate.

[3] = system: A. baumannii ATCC17978; type: cell-based, Acinetobacter baumannii; conditions: text summary over the A. baumannii strains of Table 2
Text: as §1, §2

[4] = system: A. baumannii ATCC19606 CR; type: cell-based, Acinetobacter baumannii; conditions: Induced Colistin resistant strain; colistin susceptibility by broth-dilution (CLSI)
Text: as §1, §2

[5] = system: A. baumannii ATCC19606; type: cell-based, Acinetobacter baumannii; conditions: ATCC19606, 3 h
Text: as §1, §2

[6] = system: A. baumannii TCGH45530; type: cell-based, Acinetobacter baumannii; conditions: TCGH45530, 3 h
Text: as §1, §2

[7] = system: A. baumannii TCGH46709; type: cell-based, Acinetobacter baumannii; conditions: TCGH46709, 3 h
Text: as §1, §2

[8] = system: P. aeruginosa; assay: Killing kinetics; type: cell-based, Pseudomonas aeruginosa; conditions: 2 µM peptide (1×MBC), 37°C, triplicates
Method: For measurement of killing kinetics, bacteria and peptides were prepared as described above. Fifty µl of bacteria were mixed with fifty µl of peptides at the concentrations corresponding to MBC and were incubated at 37°C. At the indicated time, bacteria were serially diluted and placed on Mueller-Hinton broth agar plates for the viability measurement.

[9] = LPS/Lipid A competition ELISA; type: binding; conditions: 10 nM peptide, 1 µg LPS per well, E. coli Lipid A 0 to 10 µg/ml, 1 hour 37°C
Method: Several kinds of peptide-LPS or peptide-Lipid A binding assays were performed in this study: 1) Streptavidine-conjugated beads (Dynabeads MyOne Streptavidin T1, Invitrogen) were blocked by P. aeruginosa LPS (Sigma) at 37°C for 1.5 hour. After washing with PBST (PBS, pH 7.4 containing 0.1% (w/v) Tween-20), aliquots containing 250 pmol streptavidine-conjugated beads were incubated with a reaction mixture overnight at 4°C. The reaction mixture was prepared by mixing increasing amounts of biotinylated peptide HBc147-183 (0, 0.004, 0.02, 0.1, 0.5 and 2.5 µM) and 5 µg/ml P. aeruginosa LPS (Sigma) or 200 µg/ml E. coli lipid A (Sigma), at 37°C for 3 hour. After incubation overnight at 4°C, the reduction of LPS (or Lipid A) in the supernatants were measured by the Limulus Amebocyte Lysate (LAL) test (Charles River Endosafe) with an ELISA reader (Molecular Devices). The amount (EU/ml) of LPS was calculated according to the standard curve prepared with Endosafe Control Srandard Endotoxin. […] After trypsinization, the trypsin-released LPS in the supernatants were collected and measured by the Limulus Amebocyte Lysate (LAL) test. […] Plate-bound HBc147-183 was measured by streptavidin conjugated with HRP (1∶10000 dilution) for 1 hour at 37°C. […] The absorption was measured at 450 nm with a reference wavelength at 655 nm.

[10] = system: Vero cells; assay: Cytotoxicity, MTT assay; type: cell-based, monkey; conditions: 1 hour at 37°C; HBc147-183 at 100 µM, melittin at 3.125 µM; triplicates
Method: Cytotoxicity was measured for HepG2, Huh7, HEK293, and Vero cells by MTT assay. Cells were seeded at 10^4 cells/well in a 96-well plate and serial dilutions of peptides were added into each well. PBS was used as a negative control and melittin was used as a positive control. After 1 hour of incubation, the medium were replaced by fresh medium containing 10% MTT solution (Promega), and the plate was incubated for 4 hours in 5% CO2 at 37°C. The absorbance at the wavelength of 595 nm was measured by an ELISA reader (Bio-Rad model 680).

For `CC(C)[C@H](NC(=O)[C@@H](NC(=O)[C@@H](N)[C@@H](C)O)C(C)C)C(=O)N[C@@H](CCCNC(=N)N)C(=O)N[C@@H](CCCNC(=N)N)C(=O)N[C@@H](CCCNC(=N)N)C(=O)NCC(=O)N[C@@H](CCCNC(=N)N)C(=O)N[C@@H](CO)C(=O)N1CCC[C@H]1C(=O)N[C@@H](CCCNC(=N)N)C(=O)N[C@@H](CCCNC(=N)N)C(=O)N[C@@H](CCCNC(=N)N)C(=O)N[C@H](C(=O)N1CCC[C@H]1C(=O)N[C@@H](CO)C(=O)N1CCC[C@H]1C(=O)N[C@@H](CCCNC(=N)N)C(=O)N[C@@H](CCCNC(=N)N)C(=O)N[C@@H](CCCNC(=N)N)C(=O)N[C@@H](CCCNC(=N)N)C(=O)N[C@@H](CO)C(=O)N[C@@H](CCC(N)=O)C(=O)N[C@@H](CO)C(=O)N1CCC[C@H]1C(=O)N[C@@H](CCCNC(=N)N)C(=O)N[C@@H](CCCNC(=N)N)C(=O)N[C@@H](CCCNC(=N)N)C(=O)N[C@@H](CCCNC(=N)N)C(=O)N[C@@H](CO)C(=O)N[C@@H](CCC(N)=O)C(=O)N[C@@H](CO)C(=O)N[C@@H](CCCNC(=N)N)C(=O)N[C@@H](CCC(=O)O)C(=O)N[C@@H](CO)C(=O)N[C@@H](CCC(N)=O)C(=O)N[C@@H](CS)C(=O)O)[C@@H](C)O` [HBc147-183] (H-TVVRRRGRSPRRRTPSPRRRRSQSPRRRRSQSRESQC-OH; N-terminus and C-terminus assumed), the “Antimicrobial activity, MBC” value [1] was 9.18 µg/mL, the “MBC against all tested colistin-resistant A. baumannii” value [2] was 0.5 to 1 µM and the “MBC against colistin-sensitive and colistin-resistant A. baumannii” value [3] was 0.5 to 1 µM. The MBC [4] was 2.30 µg/mL (≈ 0.501 µM), the MBC [5] was 2.30 µg/mL (≈ 0.501 µM) and the MBC [6] was 2.30 µg/mL (≈ 0.501 µM). For the same molecule, the MBC [7] was 4.59 µg/mL (≈ 1 µM), the “Time to complete killing” value [8] was no more than 20 min and the “Binding of peptide to plate-coated LPS with increasing Lipid A” value [9] was “significantly decreased”. For the same molecule, the “Cell viability / cytotoxicity (MTT)” value [10] was “low level of cytotoxicity”.
